Consider 2 compounds from article PMC11620503 (Antimicrobial Agents and Chemotherapy, 2024).

Usually MIC stands for the lowest concentration that inhibits growth of the organism. The MIC50 is an inhibitory concentration at the 50% level, which refers to growth in some studies and to a panel of isolates in others. Broadly, the MIC90 is an inhibitory concentration at the 90% level, which refers to growth in some studies and to a panel of isolates in others.

Data set [1] relates to E. coli ATCC BAA-2469 (NDM-1). The data set is described as follows: MIC, broth microdilution. The class given is cell-based, Escherichia coli. For orientation: Broth dilution looks for growth in wells or tubes with falling amounts of substance.
Data set [2] concerns A. baumannii CDC-35 (OXA-66 and OXA-72 producer). The data set is described as follows: Neutropenic murine thigh infection model. The note with it: MEM 50 mg/kg q3h sc for 24 h.
For data set [3], the system named is Klebsiella pneumoniae ATCC BAA-2344 (KPC-2). Briefly: Lethal mouse model of systemic infection. The note with it: ATCCBAA2344, in Mus musculus.
Data set [4] relates to P. aeruginosa CDC-90 (KPC-5). The data set is described as follows: MIC, broth microdilution. The note with it: Pseudomonas aeruginosa, agent alone. The class given is cell-based.
Data set [5] deals with Carbapenemase-producing P. aeruginosa (7). Briefly: MIC and MBC testing. Conditions: 7 carbapenemase-producing P. aeruginosa; fixed BLI concentration (μg/mL) in label. The class given is cell-based, Pseudomonas aeruginosa.
The test system of data set [6] is Acinetobacter baumannii (46). The data set is described as follows: MIC, broth microdilution. The class given is cell-based.
Data set [7] deals with Cefepime/taniborbactam-nonsusceptible Enterobacterales with metallo-carbapenemases (25). The data set is described as follows: MIC, broth microdilution. Type of data set: cell-based. The note with it: CDC AR Bank.
In data set [8] the target is OXA-23 (Acinetobacter baumannii, UniProt Q9L4P2). The data set is described as follows: Ki app determination (Waley's method).
Chain of OXA-23 (Q9L4P2 18-273): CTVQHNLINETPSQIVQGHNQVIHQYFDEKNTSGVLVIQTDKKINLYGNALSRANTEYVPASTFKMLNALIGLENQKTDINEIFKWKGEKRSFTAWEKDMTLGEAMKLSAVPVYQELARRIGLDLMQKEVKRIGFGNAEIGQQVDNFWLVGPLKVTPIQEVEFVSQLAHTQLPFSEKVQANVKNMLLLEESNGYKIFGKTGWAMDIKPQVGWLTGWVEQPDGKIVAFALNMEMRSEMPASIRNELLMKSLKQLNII
The target in data set [9] is KPC-2 (Klebsiella pneumoniae, UniProt Q9F663). Briefly: Ki app determination (Waley's method).
Chain of KPC-2 (Q9F663 25-293, looked up, species assumed): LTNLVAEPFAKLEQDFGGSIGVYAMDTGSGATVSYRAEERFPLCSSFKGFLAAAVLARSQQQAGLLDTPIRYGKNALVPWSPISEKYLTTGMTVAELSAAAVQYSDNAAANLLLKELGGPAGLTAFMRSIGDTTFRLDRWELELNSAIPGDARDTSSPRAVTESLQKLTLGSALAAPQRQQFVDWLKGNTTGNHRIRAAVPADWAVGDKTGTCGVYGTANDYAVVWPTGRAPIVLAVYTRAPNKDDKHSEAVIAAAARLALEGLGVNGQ
Data set [10] has as its target IMP-6 (Serratia marcescens, UniProt P52699, S214G). Briefly: Ki app determination (Waley's method).
Data set [11] concerns the target CTX-M-15 (Escherichia coli, UniProt Q9EXV5). Briefly: Ki app determination (Waley's method).
Data set [12] deals with VIM-1 (Pseudomonas aeruginosa, UniProt A0A0F7KYQ8). The data set is described as follows: Ki app determination (Waley's method).
For data set [13], the system named is Bacteroides ovatus KUB3009. The data set is described as follows: MIC, agar dilution, reference strains of anaerobic bacteria. Type of data set: cell-based. For orientation: Agar dilution tests growth on a series of plates holding different concentrations.
Data set [14] concerns Actinomyces odontolyticus ATCC 17929. The description is as above. Type of data set: cell-based. The note with it: Schaalia odontolytica, ATCC17929.
For data set [15], the target named is SHV-5 (Klebsiella pneumoniae, UniProt P0A3M1). The data set is described as follows: Ki app determination (Waley's method).
Chain of SHV-5 (P0A3M1 22-286): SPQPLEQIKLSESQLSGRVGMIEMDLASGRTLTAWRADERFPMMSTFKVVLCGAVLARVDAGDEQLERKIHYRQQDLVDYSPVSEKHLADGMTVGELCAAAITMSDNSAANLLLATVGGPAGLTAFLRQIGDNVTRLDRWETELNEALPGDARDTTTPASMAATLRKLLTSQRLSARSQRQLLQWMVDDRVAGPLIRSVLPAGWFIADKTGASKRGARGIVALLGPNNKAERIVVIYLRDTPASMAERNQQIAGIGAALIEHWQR
The target of data set [16] is OXA-24 (Acinetobacter baumannii, UniProt Q8RLA6). Briefly: Ki app determination (Waley's method).
Chain of OXA-24 (Q8RLA6 20-275 limits assumed): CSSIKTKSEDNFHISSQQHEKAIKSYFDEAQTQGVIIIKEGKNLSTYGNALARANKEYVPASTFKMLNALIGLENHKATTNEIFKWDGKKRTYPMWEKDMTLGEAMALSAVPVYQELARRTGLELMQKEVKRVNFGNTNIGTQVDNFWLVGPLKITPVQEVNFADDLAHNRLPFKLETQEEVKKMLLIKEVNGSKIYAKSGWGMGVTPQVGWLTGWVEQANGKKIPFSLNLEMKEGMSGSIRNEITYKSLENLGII
For data set [17], the target named is SHV-2 (Klebsiella pneumoniae, UniProt P0A9Z8). Briefly: Ki app determination (Waley's method).
Chain of SHV-2 (P0A9Z8 22-286): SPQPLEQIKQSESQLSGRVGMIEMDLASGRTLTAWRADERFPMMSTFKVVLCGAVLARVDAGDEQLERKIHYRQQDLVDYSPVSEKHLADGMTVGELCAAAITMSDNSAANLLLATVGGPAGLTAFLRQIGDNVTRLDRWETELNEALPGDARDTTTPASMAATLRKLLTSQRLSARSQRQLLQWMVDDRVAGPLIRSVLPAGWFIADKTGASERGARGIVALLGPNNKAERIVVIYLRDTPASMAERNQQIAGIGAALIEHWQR
The target of data set [18] is VIM-2 (Escherichia coli, UniProt Q5U7L7). Briefly: Ki app determination (Waley's method).
Data set [19] can be described thus: Free concentration of KSP-1007 at the dose effective in the infection models. Type of data set: in vivo, mouse. Conditions: 30 mg/kg of KSP-1007; data not shown.
Data set [20] addresses OXA-72 (Acinetobacter baumannii, UniProt Q5XQU0). The data set is described as follows: Ki app determination (Waley's method).
The target of data set [21] is CTX-Ms and PDC-11. The data set is described as follows: Ki app determination, range over enzymes. The note with it: read-out: Ki app values, range; range over CTX-Ms and PDC-11.
Data set [22] deals with Peptoniphilus asaccharolyticus ATCC 14963. Briefly: MIC, agar dilution, reference strains of anaerobic bacteria. Conditions: ATCC14963. The class given is cell-based.
In data set [23] the test system is Prevotella melaninogenica KUB3005. The description is as above. The class given is cell-based.
Data set [24] has as its target SHV-12 (Klebsiella pneumoniae, UniProt P0A3M1, L31Q). The data set is described as follows: Ki app determination (Waley's method).
In data set [25] the test system is Atopobium rimae KUB3014. The data set is described as follows: MIC, agar dilution, reference strains of anaerobic bacteria. Type of data set: cell-based. Conditions: Lancefieldella rimae.
The subject of data set [26] is Bacteroides fragilis KUB2983. Described as above. The class given is cell-based.
Data set [27] concerns Prevotella intermedia KUB2991. The data set is described as above. The class given is cell-based.
Setting [28] is: CLSI breakpoints, marked c: breakpoints for β-lactam alone.
Where [29] appears, read: fixed concentration (μg/mL) in label.

Converted amounts (≈) assume the structure as drawn. Where two headings read alike, the source gives them in different places.

Chain of OXA-72 (Q5XQU0 entry or part of it): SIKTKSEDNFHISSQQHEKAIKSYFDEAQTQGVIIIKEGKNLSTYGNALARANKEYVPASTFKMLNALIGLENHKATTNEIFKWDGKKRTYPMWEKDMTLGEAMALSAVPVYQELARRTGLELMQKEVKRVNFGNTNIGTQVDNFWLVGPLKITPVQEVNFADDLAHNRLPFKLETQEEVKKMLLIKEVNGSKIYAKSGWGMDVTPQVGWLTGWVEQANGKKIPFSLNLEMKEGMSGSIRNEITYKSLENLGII
Chain of SHV-12 (P0A3M1 22-286 L31Q): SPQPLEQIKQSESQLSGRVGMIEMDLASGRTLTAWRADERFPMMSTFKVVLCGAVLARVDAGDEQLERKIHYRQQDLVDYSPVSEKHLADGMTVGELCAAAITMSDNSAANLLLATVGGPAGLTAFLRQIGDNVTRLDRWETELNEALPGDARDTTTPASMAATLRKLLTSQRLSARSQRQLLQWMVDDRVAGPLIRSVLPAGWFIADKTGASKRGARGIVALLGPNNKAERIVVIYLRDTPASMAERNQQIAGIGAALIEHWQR
Chain of IMP-6 (P52699 19-246 S214G): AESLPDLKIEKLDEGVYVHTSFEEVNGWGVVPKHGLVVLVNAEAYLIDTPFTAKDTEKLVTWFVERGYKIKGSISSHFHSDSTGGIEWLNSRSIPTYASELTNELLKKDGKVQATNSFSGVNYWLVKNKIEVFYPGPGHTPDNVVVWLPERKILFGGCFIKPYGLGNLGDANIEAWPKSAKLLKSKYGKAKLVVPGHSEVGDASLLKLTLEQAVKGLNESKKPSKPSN
Chain of CTX-M-15 (Q9EXV5 29-291, species assumed): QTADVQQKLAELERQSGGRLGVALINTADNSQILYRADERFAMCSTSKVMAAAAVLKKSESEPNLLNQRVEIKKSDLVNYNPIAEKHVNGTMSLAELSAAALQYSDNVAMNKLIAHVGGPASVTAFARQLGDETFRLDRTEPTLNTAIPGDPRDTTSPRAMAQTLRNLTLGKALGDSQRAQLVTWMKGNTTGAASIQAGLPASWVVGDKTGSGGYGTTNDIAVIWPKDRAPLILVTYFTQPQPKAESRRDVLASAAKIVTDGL

In the case of `C[C@@H](O)[C@H]1C(=O)N2C(C(=O)O)=C(S[C@@H]3CN[C@H](C(=O)N(C)C)C3)[C@H](C)[C@H]12` [MEM, meropenem], the MIC in [1] (Escherichia coli, ATCCBAA2469, Experiment 1, agent alone, read-out: MIC) amounted to 32 µg/mL (≈ 83.4 µM); in data set [1] (Experiment 2, agent alone), 32 µg/mL (≈ 83.4 µM); in data set [4], 32 µg/mL (≈ 83.4 µM). Further, in data set [2], the “bacterial growth in the thigh compared with the control group” value is “no significant reduction in bacterial growth”. The ED50 in [3] (read-out: ED50 of MEM (95% confidence intervals), K. pneumoniae ATCC BAA-2344, Experiment 1, single sc dose 2 h after ip inoculation, survival day 7, dose ratio in label) worked out at 205 mg/kg; in data set [3] (read-out: ED50 of MEM (95% confidence intervals), K. pneumoniae ATCC BAA-2344, Experiment 2, single sc dose 2 h after ip inoculation, survival day 7, dose ratio in label), 54.8 mg/kg. The compound further had an MBC range in data set [5] of 64 to 256 µg/mL. In [5], the MIC Range was 64 to 256 µg/mL. For the same compound, the “CLSI MIC interpretation I (intermediate)” value in [6] (setting [28]) and in data set [7] (setting [28]) was 0% in each case. Besides, the “CLSI MIC interpretation R (resistant)” value in data set [6] (setting [28]) came to 100%; in data set [7] (setting [28]), 96%. In addition, the “CLSI MIC interpretation S (susceptible)” value in [6] (setting [28]) is 0%; in data set [7] (setting [28]), 4%. The MIC50 in data set [6] (setting [29]) and in data set [7] (setting [29]) was 32 µg/mL (≈ 83.4 µM) in each case. For the same compound, in data set [7] (setting [29]), the MIC90 was over 32 µg/mL.

Regarding `N[C@@H](C(=O)N1CC(Oc2ccc3c(c2C(=O)O)OB(O)CC3)C1)c1c[nH]cn1` [KSP-1007, 7-({1-[(2R)-2-amino-2-(1H-imidazol-4-yl)acetyl]azetidin-3-yl}oxy)-2-hydroxy-3,4-dihydro-2H-1,2-benzoxaborinine-8-carboxylic acid], the Ki in data set [8] is 4.07 ± 0.237 nM; in data set [9], 1.46 ± 0.0574 nM; in data set [10] it was 19900 nM; in [11], 0.0664 ± 0.015 nM; in data set [12], 350 ± 45.4 nM; in data set [15] it was 127 ± 16 nM. The Ki in data set [16] was 1.09 ± 0.387 nM; in data set [17] it was 361 ± 127 nM; in [18], 1210 nM; in data set [20] it was 0.621 ± 0.0248 nM; in [21], 0.0664 to 0.79 nM; in [24] it was 53.5 ± 12.2 nM. Moreover, the minimum inhibitory concentration (MIC) came out at 128 µg/mL (≈ 331 µM) in [13]; 256 µg/mL (≈ 663 µM) in data set [14]; 32 µg/mL (≈ 82.9 µM) in [22]; 4 µg/mL (≈ 10.4 µM) in data set [23]; 8 µg/mL (≈ 20.7 µM) in data set [25]; 16 µg/mL (≈ 41.4 µM) in [26]. Further, the minimum inhibitory concentration (MIC) in data set [27] was 4 µg/mL (≈ 10.4 µM). The free concentration entry in data set [19] is on record as “exceeded 8 µg/mL”.
